No end group written: not given here.
What was measured:
HMGB1 = target: T1, HMGB1 (Homo sapiens, UniProt P09429); assay: Surface plasmon resonance (BIAcore) analysis of binding to HMGB1
T1 sequence (P09429 1-215): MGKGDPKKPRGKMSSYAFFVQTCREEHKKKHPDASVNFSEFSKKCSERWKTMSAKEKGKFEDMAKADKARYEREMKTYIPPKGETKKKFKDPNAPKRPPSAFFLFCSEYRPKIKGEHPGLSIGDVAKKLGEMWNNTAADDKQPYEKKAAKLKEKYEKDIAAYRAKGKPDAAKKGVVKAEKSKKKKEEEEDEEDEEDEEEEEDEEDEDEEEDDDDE
Source text: FIG. 2A-2B: 2A. Human haptoglobin has three phenotypes and contains α and β subunits. 2B. […] Data shown is representative of 3 separate experiments.
(§1) FIG. 6A-6C: 6A. Schematics of haptoglobin (Hp) β and Hp β peptide (SEQ ID NO:1). 6B. […] 6C. […] N=5.
Haptoglobin (Hp) β binds to HMGB1: Human haptoglobin has three phenotypes and contains α and β subunits.
(§2) Haptoglobin β peptide retains the activity to bind and inhibit HMGB1 toxicity. […] (See FIG. 6C).

[1] = test system: HMGB1-induced TNF release in primary mouse macrophages; assay: Inhibition of HMGB1-induced TNF release in primary mouse macrophages; format: cell-based; settings: N=5, result in words
Source text: as §1, §2

[2] = test system: HMGB1-induced TNF release in murine macrophage-like RAW 264.7 cells; assay: Inhibition of HMGB1-induced TNF release in RAW 264.7 cells; format: cell-based
Protocol: FIG. 3A-3B: HMGB1 stimulated TNF release in murine macrophage-like RAW 264.7 cells. 3A. The addition of haptoglobin produced a dose-dependent attenuation of the HMGB1-induced TNF release (up to 90% inhibition at 100 μg/ml). 3B. […] N=3-5 experiments. *: P<0.05 vs. HMGB1 alone.

CLP-induced sepsis = assay: Survival in cecal ligation and puncture (CLP)-induced sepsis; format: in vivo, mice
Source text: (§3) Haptoglobin is a complex protein consisting of α and β subunits (Yueh S C et al. J Chromatography, 2007). […] Administration of haptoglobin β subunit protects against lethality in mice with CLP-induced sepsis (CLP survival=85% in haptoglobin β-treated versus 50% in vehicle-treated group; n=22 mice per group, P<0.05) and in experimental acetaminophen-induced liver injury (Survival in haptoglobin β treated group=80% versus 35% in vehicle control group, P<0.05, n=20 mice per group). Screening of a peptide library of the haptoglobin β identified a critical region ([…], residues #278-305 in the B subunit) that retains the ability to inhibit HMGB1-induced TNF release from cultured macrophages. Taken together, these findings reveal a novel mechanism for haptoglobin modulation of the inflammatory action of HMGB1, with significant implications for developing experimental strategies targeting HMGB 1-dependent inflammatory diseases.
N=16 mice/group. […] Recombinant haptoglobin β (10 or 100 μg/mouse) was given once a day for 3 days starting at 24 hours after CLP surgery (N=25 mice/group). (See FIG. 5A-5B).

[3] = test system: acetaminophen-induced liver injury; assay: Survival in experimental acetaminophen-induced liver injury; format: in vivo; settings: mice; vehicle control group 35%; n=20 per group; P<0.05
Source text: as §3
Acetaminophen-induced liver injury: Administration of haptoglobin β subunit protects against lethality in mice with experimental acetaminophen-induced liver injury (survival in haptoglobin β treated group=80% versus 35% in vehicle control group, P<0.05, n=20 mice per group).

[4] = target: T2, Haptoglobin beta subunit (human) (human, UniProt P00738 162-406); assay: surface plasmon resonance
T2 construct: also called haptoglobin β; Hp β
T2 sequence: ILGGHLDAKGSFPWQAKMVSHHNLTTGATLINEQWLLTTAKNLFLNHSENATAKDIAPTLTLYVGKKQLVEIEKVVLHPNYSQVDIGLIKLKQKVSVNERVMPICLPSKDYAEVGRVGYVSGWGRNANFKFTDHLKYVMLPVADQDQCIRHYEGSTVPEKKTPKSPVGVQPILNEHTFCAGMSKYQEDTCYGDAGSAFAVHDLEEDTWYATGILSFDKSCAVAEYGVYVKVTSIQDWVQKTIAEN

GYVSGWGRNANFKFTDHLKYVMLPVAD [Hpβ peptide]
Kd (HMGB1; BIAcore analysis): ~17000 nM
inhibition of HMGB1-induced TNF release [1]: dose-dependently inhibited

haptoglobin β: Haptoglobin beta subunit (human), SEQ ID NO:3; recombinant
Kd (HMGB1; surface plasmon resonance, representative of 3 separate experiments): 29 nM
inhibition of HMGB1-induced TNF release ([2]; result in words): as effective as haptoglobin
rescue from death after CLP (CLP-induced sepsis; haptoglobin KO mice, doses as low as 100 μg per animal per day, once a day for 3 days starting 24 hours after CLP, N=25 mice/group): rescued from death
CLP survival (CLP-induced sepsis; mice with CLP-induced sepsis, vehicle-treated group 50%, n=22 per group, P<0.05): 85%
likelihood of survival vs vehicle-treated control after CLP (CLP-induced sepsis; wild type mice, 200 μg/mouse injected IP, N=16 mice/group, P<0.05): twice as likely to survive
Survival in acetaminophen-induced liver injury [3]: 80%

B1: HMGB1 (ligand)
chain: MGKGDPKKPRGKMSSYAFFVQTCREEHKKKHPDASVNFSEFSKKCSERWKTMSAKEKGKFEDMAKADKARYEREMKTYIPPKGETKKKFKDPNAPKRPPSAFFLFCSEYRPKIKGEHPGLSIGDVAKKLGEMWNNTAADDKQPYEKKAAKLKEKYEKDIAAYRAKGKPDAAKKGVVKAEKSKKKKEEEEDEEDEEDEEEEEDEEDEDEEEDDDDE
notes: also called extracellular HMGB1
Kd [4]: 29 nM

B2: haptoglobin: full-length haptoglobin, acute phase protein with α and β subunits; mature human sequence SEQ ID NO:2 (protein, listed as Homo sapiens)
chain: VDSGNDVTDIADDGCPKPPEIAHGYVEHSVRYQCKNYYKLRTEGDGVYTLNDKKQWINKAVGDKLPECEADDGCPKPPEIAHGYVEHSVRYQCKNYYKLRTEGDGVYTLNNEKQWINKAVGDKLPECEAVCGKPKNPANPVQRILGGHLDAKGSFPWQAKMVSHHNLTTGATLINEQWLLTTAKNLFLNHSENATAKDIAPTLTLYVGKKQLVEIEKVVLHPNYSQVDIGLIKLKQKVSVNERVMPICLPSKDYAEVGRVGYVSGWGRNANFKFTDHLKYVMLPVADQDQCIRHYEGSTVPEKKTPKSPVGVQPILNEHTFCAGMSKYQEDTCYGDAGSAFAVHDLEEDTWYATGILSFDKSCAVAEYGVYVKVTSIQDWVQKTIAEN
inhibition of HMGB1-induced TNF release ([2]; at 100 μg/ml, dose-dependent): up to 90%
protection in intra-abdominal sepsis (CLP) (CLP-induced sepsis; wild type and haptoglobin-gene deficient animals, result in words): confers significant protection

Source: US20180344808A1, “HAPTOGLOBIN DERIVATIVE FOR TREATMENT OF SEPSIS AND ACETAMINOPHEN-INDUCED LIVER DAMAGE” (THE FEINSTEIN INSTITUTE FOR MEDICAL RESEARCH, priority 2017, published 2018)
